Results taken from US20040030106A1, “Novel compounds and process” (priority 2000, published 2004).
Several values for one entry are separate records, joined by “and”; a condition that tells them apart may be missing. Equal values may be shown once. Bridge positions count the residues as written; N and C are the ends. Ends that are not written are not given here.

How the values were obtained:
[1] = test system: P15 peptides; experiment: Anti-peptide antibody response after immunisation of mice with cyclic P15-BSA conjugates; assay type: in vivo; details: 10 mice per group, 25 μg conjugate IM with AS2 adjuvant on days 0, 14, 28; 14 days post III
Experimental: (§1) The P15 peptide conjugates produced in Example 1 were also used to immunise 10 mice per group,intramuscularly (IM) on days 0, 14 and 28 with 25 μg of conjugate mixed with AS2 adjuvant (oil/water emulsion, 3D-MPL, QS21). Very homogenous responses were obtained with all cyclic P15 peptides.

[2] = test system: IgE; experiment: Anti-IgE antibody response after immunisation of mice with cyclic P15-BSA conjugates, by comparison with mAb 11; assay type: in vivo; details: mAb11 equivalents, 25 μg conjugate IM with AS2 adjuvant on days 0, 14, 28, 14 days post III
Experimental: as §1

[3] = test system: P14 peptides; experiment: IgG anti-peptide ELISA after immunisation of mice with P14 peptide-BSA conjugates; assay type: in vivo; details: 25 μg conjugate IM with AS2 adjuvant on days 0, 14, 28, day 14 post III; for IgG anti-peptide responses (midpoint titre), individual mice: one value per mouse
Experimental: To evaluate the immunogenicity of the conjugates produced in Example 1, 10 mice per group were immunised intramuscularly (IM) on days 0, 14 and 28 with 25 μg of conjugate mixed with AS2 adjuvant (oil/water emulsion, 3D-MPL, QS21). The serologic response for the P14 peptides was analysed by ELISA on days 28 and 42 (14 post III).

[4] = test system: human basophils; experiment: Human basophil blocking assay: inhibition of Lol p I triggered histamine release; assay type: cell-based; details: human basophils from allergic donors, triggered with allergen (Lol p I)
Source text: The degree of inhibition of histamine release can be calculated using the formula:
% inhibition=1−(histamine release from test sample treated cells*)×100(histamine release from antigen stimulated cells*)
Values corrected for spontaneous release.

[5] = test system: human basophils
Experimental: Blood was collected by venepuncture from 4 allergic donors into tubes containing 0.1 volumes 2.7% EDTA, pH 7.0. It is then diluted 1/2 with an equal volume of HBH medium containing 0.1% human serum albumin (HBH/HSA). The resulting cell suspension was layered over 50% volume Ficoll-Paque and centrifuged at 400 g for 30 minutes at room temperature. The peripheral blood mononuclear cell (PBMC) layer at the interface is collected and the pellet is discarded. The cells are washed once in HBH/HSA, counted, and re-suspended in HBH/HSA at a cell density of 2.0×10^6 per ml. 100 μl cell suspension are added to wells of a V-bottom 96-well plate containing 100 μl diluted test sample or vaccine induced antibody. Each test sample is tested at a range of dilutions with 6 wells for each dilution. Well contents are mixed briefly using a plate shaker, before incubation at 37° C. for 30 minutes with shaking at 120 rpm.
For each serum dilution 3 wells are triggered by addition of 10 μl Lol p I extract (final dilution 1/10000) and 3 wells have 10 μl HBH/HSA added for assessment of anaphylactogenicity. Well contents are again mixed briefly using a plate shaker, before incubation at 37° C. for a further 30 minutes with shaking at 120 rpm. Incubations are terminated by centrifugation at 500 g for 5 min. Supernatants are removed for histamine assay using a commercially available histamine EIA measuring kit (Immunotech). Control wells containing cells without test sample are routinely included to determine spontaneous and triggered release. Wells containing cells ±0.05% Igepal detergent are also included to determine total cell histarnine.
Histamine release due to test samples=% histamine release from test sample treated cells−% spontaneous histamine release.

| Substance | anti-peptide (midpoint titre), average [1] | anti-peptide (midpoint titre), geomean [1] | anti-IgE (μg/ml or mAB11 equivalent), average [2] | anti-IgE (μg/ml or mAB11 equivalent), geomean [2] | IgG anti-peptide responses (midpoint titre), Average [3] | IgG anti-peptide responses (midpoint titre), geomean [3] | IgG anti-peptide responses (midpoint titre), individual mice [3] | histamine release blocking activity of the induced antiserum [4] | anaphylactogenicity of the induced antiserum [5] |
| --- | --- | --- | --- | --- | --- | --- | --- | --- | --- |
| Ac-CLEDGQVMDCGSK-NH2 (disulfide 1-10 (inferred)) [P15b, 325 conjugated to BSA] | 11169 | 8385 | 70 µg/mL | 35 µg/mL | – | – | – | – | – |
| Ac-CWPGSRDRRCGSK-NH2 (disulfide 1-10 (inferred)) [P14I] | – | – | – | – | 48146 | 45336 | 85882 and 28989 and 39268 and 39460 and 57276 and 50834 and 54664 and 62263 and 36621 and 26202 | – | – |
| Ac-CLEDGQVMDVDLCGGSSGGK-NH2 (disulfide 1-13 (inferred)) [P15e, 328 conjugated to BSA] | 57432 | 55207 | 129 µg/mL | 113 µg/mL | – | – | – | inhibited histamine release | without the antiserum being anaphylactogenic |
| ACPEWPGSRDRCTLAG-NH2 (disulfide 2-12 (inferred)) [P14e] | – | – | – | – | 3200 | 3051 | 3151 and 2345 and 3224 and 3051 and 2873 and 4647 and 1461 and 4227 and 3821 | – | – |
| Ac-CLEDGQVMDVDLCPREAAEGDK-NH2 [P15d] | 35118 | 32801 | 174 µg/mL | 111 µg/mL | – | – | – | inhibited histamine release | without the antiserum being anaphylactogenic |
| Ac-CLEDGQVMDVDLCGSK-NH2 (disulfide 1-13 (inferred)) [P15c, 326 conjugated to BSA] | 66452 | 65685 | 200 µg/mL | 189 µg/mL | – | – | – | inhibited histamine release | without the antiserum being anaphylactogenic |
| Ac-CPEWPGSRDRCGSK-NH2 (disulfide 1-11 (inferred)) [P14f] | – | – | – | – | 77521 | 73541 | 67086 and 101502 and 36031 and 74838 and 56496 and 51304 and 92885 and 92868 and 113041 and 89155 | – | – |
